Results on 2 compounds are retold here after patent US4432984A, “Anti-hypertensive benzodioxan derivatives” (Bouchara; Emile, priority 1981, dated 1984).

A word on the LD50: it is the dose expected to kill half of the subjects tested.

Series [1] has as its system central nervous system. Nature of the series: Effects on the central nervous system in mice. The series is classed as in vivo. As to conditions: oral, same dosages which induce an anti-hypertensive activity in rats. The source says: Such central effects may be directly related to the hypotensive action.
Series [2] in a line: Acute toxicity in mice by the oral route. As to conditions: mouse, in vivo, per os, read-out: Approximate lethal dose 50 (LD50). How it is done:
Toxicity was determined in mice by the oral route.

Counter-ions that a name gives are not always drawn.

As to `O=C(c1ccc(F)cc1)C1CCN(CC2COc3ccccc3O2)CC1` (centres unmarked) [Example 2, 1-[(2,3-Dihydro-4H-1,4-benzodioxin)-2-ylmethyl]-4-(4-fluorobenzoyl)piperidine hydrochloride], in series [1], the aggressiveness result is on record as “a decrease of the aggressiveness”, the experimentally-induced sleep entry was “a potentiation of the experimentally-induced sleep” and the sedation result was “a state of sedation”. For the same compound, in series [2], the LD50 lay within 495 to 655 mg/kg.

With `O=C(Oc1ccc(C(=O)C2CCN(CC3COc4ccccc4O3)CC2)cc1)c1cccnc1` (centres unmarked) [Example 8, 1-[(2,3-Dihydro-4H-1,4-benzodioxin)-2-ylmethyl]-4-(4-hydroxybenzoyl)piperidine nicotinate], the LD50 in series [2] was over 3200 mg/kg.
